These results are taken from patent US10865222B2, “Neisseria gonorrhoeae therapeutic based on CMP-nonulosonate sugars” (priority 2014, dated 2020).

Assay [1] deals with T1, gonococcal LOS sialyltransferase (Lst) (Neisseria gonorrhoeae, UniProt P72074).
T1 construct: served as substrates for gonococcal Lst in the context of live bacteria; endogenous in cells; host or cells: N. gonorrhoeae F62 ΔlgtD (live bacteria)
The assay is classed as cell-based, N. gonorrhoeae. The following applies: CMP salt 30 μM (20 μg/ml), 2 h at 37° C. The procedure: FIG. 1. Substrate specificity of gonococcal LOS sialyltransferase (Lst) N. gonorrhoeae strain F62 ΔIgtD was grown in standard gonococcal liquid media alone (‘No sialic acid’) or in media supplemented with CMP salts of the indicated sialic acid or nonulosonic acid, each at a concentration of 20 μg/ml (˜30 μM), for 2 h at 37° C. Bacteria were washed, pellets treated with protease K, lysed in 4×LDS buffer and lysates were separated on 12% Bis-Tris gels using MES running buffer. LOS was transferred to a PVDF membrane and probed with mAb 3F11 that recognizes the lacto-N-neotetraose only in the non-sialylated state; the addition of a sialic acid or nonulosonate residue abrogates mAb 3F11 binding (upper panel). LOS was also visualized by silver staining (middle panel). Sialylation or nonulosonate (NulO) modification was also quantified using whole cell ELISA with mAb 3F11 (lower graph).
To define the substrate specificity of gonococcal LOS sialyltransferase, N. gonorrhoeae F62 ΔIgtD was grown in media alone, or media that contained the CMP-activated derivatives of 7 nonulosonates (listed in Table 1), each at a concentration of 30 μM (20 μg/ml). Following incubation for 2 h at 37° C., bacteria were washed, lysed with protease K/LDS sample buffer and separated on 12% Bis-tris gels. Blots were probed with mAb 3F11, which binds to the terminal lactosamine residue of lacto-N-neotetraose (LNT); any extension beyond the terminal Gal (in this instance with a nonose) would abrogate 3F11 binding. […] Whole cell ELISA with mAb 3F11 confirmed results of western blotting (FIG. 1, lower graph).
Bacteria (F62 ΔIgtD) grown overnight on chocolate agar plates were suspended in gonococcal liquid media supplemented with IsoVitaleX (11) that contained specified concentrations of the CMP-nonulosonate. Bacteria were then incubated at 37° C. for the period specified in each experiment.
Gonococcal lysates treated with protease K (100 μg/ml) and NuPAGE® LDS Sample Buffer (4×) (Invitrogen) were separated on NuPAGE® 12% Bis-Tris (Invitrogen) gels using Novex® MES running buffer (Invitrogen) followed by sliver staining with the Bio-Rad Silver Stain Kit, or were transferred to an Immobilon PVDF membrane (Millipore). Membranes were blocked with PBS/1% milk and probed with tissue culture supernatants that contained mAb 3F11. mAb 3F11-reactive LOS bands were disclosed with anti-mouse IgM conjugated to alkaline phosphatase followed by the addition of BCIP®/NBT-Purple Liquid Substrate (Sigma).

The subject of the next assay is N. gonorrhoeae F62 ΔIgtD. Kind of assay: Flow cytometry for factor H binding to bacteria. Format: cell-based. Also noted: key to fH binding: minimal: compared to unsialylated gonococci. As to conditions: for fH binding facilitated by CMP-Neu5Ac: analogue added within 2 min of CMP-Neu5Ac 20 μg/ml. The procedure:
FIG. 3. Effects of LOS modification with various nonulosonate analogues on fH binding to N. gonorrhoeae. N. gonorrhoeae F62 ΔIgtD was grown in media alone, or media supplemented with 20 μg/ml (˜30 μM) of each of the indicated CMP-nonulosonates. Binding of bacteria to fH (10 μg/ml) was measured by flow cytometry using polyclonal goat anti-human fH. The control indicates reaction mixtures that lacked fH. Y-axis, median fluorescence of fH binding. The mean (SD) of 2 independent repeats is shown.
FIG. 7. […] A. N. gonorrhoeae F62 ΔIgtD was incubated in media containing CMP-Neu5Ac (20 μg/ml), followed […] by the addition of either CMP-Neu5Ac9Az or CMP-Leg5Ac7Ac (20, 2 or 0.2 μg/ml). Bacteria were grown for 2 h and fH binding detected by FACS using polyclonal goat anti-human fH. The Y-axis represents median fluorescence. The mean (SEM) of two independent observations is shown. B. Development of serum resistance lags behind fH binding when measured as a function of time of exposure of bacteria to CMP-Neu5Ac. CMP-Neu5Ac (20 μg/ml) was added to media containing F62 ΔIgtD and bacteria were taken at the time points indicated on the X-axis and assayed for fH binding by FACS with anti-fH mAb 90× (left Y-axis; median fluorescence (SEM)), or tested for its ability to resist killing by 10% NHS (right Y-axis; percent survival). The data represent 2-3 independent experiments. C. Representative histograms of a fH binding FACS experiment.
The addition of a terminal Neu5Ac residue to LNT-expressing LOS enhances binding of the alternative pathway inhibitor, factor H, which contributes to the ability of sialylated gonococci to resist killing by complement (7). fH binding to N. gonorrhoeae F62 ΔIgtD grown in the presence of each of the CMP-nonulosonates (20 μg/ml or 30 μM) was examined (FIG. 3). […] Reducing the CMP-nonulosonate concentrations in growth media to 2 μg/ml (3 μM) yielded similar fH binding results (FIG. 9B). Further, modification of LOS with Neu5Ac or Neu5Gc yielded similar amounts of fH binding over CMP-sialic acid concentrations ranging from 0.5 to 4 μg/ml, with near maximal fH binding observed even at the lowest concentration tested (FIG. 9C).
fH binding to bacteria was performed using flow cytometry as described previously (14). Briefly, bacteria (F62 ΔIgtD) were harvested from chocolate agar plates and grown in liquid media that contained the specified concentration of the CMP-nonulosonate as described above. Bacteria were then washed with Hanks Balanced Salt Solution (HBSS) containing 1 mM Ca^2+ and 1 mM Mg^2+ (HBSS^++) and incubated with fH purified from human plasma (Complement Technology, Inc.; concentration specified for each experiment). Bound fH was detected using either anti-fH mAb (Quidel, catalog no. A254 (mAb 90×)) or goat anti-human fH, followed by FITC conjugated anti-mouse IgG or anti-goat IgG, respectively (Sigma); both Abs had similar performance characteristics. All reaction mixtures were carried out in HBSS^++/1% BSA in a final volume of 50 μl. Flow cytometry was performed using a FACSCalibur instrument (Becton Dickinson) and data were analyzed using FlowJo (version 7.2.5; Tree Star, Inc.).

The mark [2] stands for this setting: CMP-nonulosonate 20 μg/ml or 30 μM, vs unsialylated F62 ΔIgtD.

Entries after “also recorded” stand apart in the source; their conditions may differ.

T1 sequence (P72074 whole entry): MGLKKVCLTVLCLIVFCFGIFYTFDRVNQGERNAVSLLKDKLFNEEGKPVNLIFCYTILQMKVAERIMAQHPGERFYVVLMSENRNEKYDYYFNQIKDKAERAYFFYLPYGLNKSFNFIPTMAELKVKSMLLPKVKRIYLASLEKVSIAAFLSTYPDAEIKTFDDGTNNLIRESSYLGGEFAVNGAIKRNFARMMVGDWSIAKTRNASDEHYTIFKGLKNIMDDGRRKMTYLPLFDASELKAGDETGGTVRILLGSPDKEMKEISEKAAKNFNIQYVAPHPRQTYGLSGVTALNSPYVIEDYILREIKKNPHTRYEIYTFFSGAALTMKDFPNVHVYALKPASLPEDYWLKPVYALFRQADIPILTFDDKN

As for `CC(=O)NC1C(O)CC(OP(=O)(O)OCC2OC(n3ccc(N)nc3=O)C(O)C2O)(C(=O)O)OC1C(O)C(O)CO` [CMP-Neu5Ac, CMP-5-acetamido-3,5-dideoxy-D-glycero-D-galacto-nonulosonic acid, reference compound], the “mAb 3F11 binding / incorporation of nonulosonate onto LNT LOS (use as Lst substrate)” value (“mAb 3F11 binding / incorporation” for short) in assay [1] was “decreased binding of mAb 3F11”. Also, the “fH binding as function of time of exposure” value is “barely any fH binding above control levels” with N. gonorrhoeae F62 ΔIgtD (CMP-Neu5Ac 20 μg/ml, 2 min) and “near maximal binding” in the assay on N. gonorrhoeae F62 ΔIgtD (CMP-Neu5Ac 20 μg/ml, by 32 min). Further, the “fH binding, % of maximal binding” value in the assay on N. gonorrhoeae F62 ΔIgtD (CMP-Neu5Ac 20 μg/ml, by 16 min) is roughly 70%. The fH binding result in the assay with N. gonorrhoeae F62 ΔIgtD (setting [2]) is recorded as “Maximal”; in the assay with N. gonorrhoeae F62 ΔIgtD (CMP-sialic acid 0.5 to 4 μg/ml, lowest concentration tested), “near maximal”; in the assay on N. gonorrhoeae F62 ΔIgtD (summary Table 1), “high”.
Take `COC(CO)C(O)C1OC(OP(=O)(O)OCC2OC(n3ccc(N)nc3=O)C(O)C2O)(C(=O)O)CC(O)C1NC(=O)CO` [CMP-Neu5Gc8Me, CMP-5-hydroxyacetamido-8-O-methyl-3,5-dideoxy-D-glycero-D-galacto-nonulosonic acid]: in assay [1], the “mAb 3F11 binding / incorporation” value is “decreased binding of mAb 3F11”. In addition, in the assay with N. gonorrhoeae F62 ΔIgtD (summary Table 1), the fH binding result is “minimal”.
Regarding `CC(=O)N[C@H]1[C@H]([C@H](O)[C@H](O)COC(C)=O)OC(OP(=O)(O)OC[C@H]2O[C@@H](n3ccc(N)nc3=O)[C@H](O)[C@@H]2O)(C(=O)O)C[C@@H]1O` (stereo partly drawn) [CMP-Neu5Ac9Ac, CMP-5-acetamido-9-O-acetyl-3,5-dideoxy-D-glycero-D-galacto-nonulosonic acid], in assay [1], the “mAb 3F11 binding / incorporation” value is “decreased binding of mAb 3F11”. Besides, the fH binding result in the assay on N. gonorrhoeae F62 ΔIgtD (setting [2]) and in the assay with N. gonorrhoeae F62 ΔIgtD (summary Table 1) was “intermediate” throughout.
Take “5,7-diacetamido-3,5,7,9-tetradeoxy-D-glycero-D-galacto-nonulosonic acid [CMP-Leg5Ac7Ac]”: the “mAb 3F11 binding / incorporation” value in assay [1] is listed as “decreased binding of mAb 3F11; also recorded: least incorporated”. In the assay with N. gonorrhoeae F62 ΔIgtD, the “fH binding facilitated by CMP-Neu5Ac” value is on record as “did not interfere with fH binding”. Besides, in the assay on N. gonorrhoeae F62 ΔIgtD (summary Table 1), the fH binding entry is “minimal”.
For the compound `CC(=O)N[C@H]1[C@H]([C@H](O)[C@H](O)CN=[N+]=[N-])OC(OP(=O)(O)OC[C@H]2O[C@@H](n3ccc(N)nc3=O)[C@H](O)[C@@H]2O)(C(=O)O)C[C@@H]1O` (stereo partly drawn) [CMP-Neu5Ac9Az, CMP-5-acetamido-9-azido-3,5,9-trideoxy-D-glycero-D-galacto-nonulosonic acid], the “mAb 3F11 binding / incorporation” value in assay [1] is on record as “decreased binding of mAb 3F11”. Also, the “fH binding facilitated by CMP-Neu5Ac” value in the assay on N. gonorrhoeae F62 ΔIgtD was “did not interfere with fH binding”. In addition, the fH binding result in the assay with N. gonorrhoeae F62 ΔIgtD (summary Table 1) is listed as “minimal^A”.
